Experimental data taken from BigSolDB 2.1.

O=P1(O)Oc2ccc3ccccc3c2-c2c(ccc3ccccc23)O1 gave a solubility (mole fraction) (in ethanol, 288.15 K) of 0.00444, a solubility (mole fraction) (in ethanol, 293.15 K) of 0.00462 and a solubility (mole fraction) (in ethanol, 298.15 K) of 0.00489. For the same molecule, the solubility (mole fraction) (in ethanol, 303.15 K) was 0.00511, the solubility (mole fraction) (in ethanol, 308.15 K) was 0.00533 and the solubility (mole fraction) (in ethanol, 313.15 K) was 0.00544. The solubility (mole fraction) (in ethanol, 318.15 K) was 0.00573, the solubility (mole fraction) (in ethanol, 323.15 K) was 0.00601 and the solubility (mole fraction) (in ethanol, 328.15 K) was 0.00632. The solubility (mole fraction) (in ethanol, 333.15 K) was 0.00664, the solubility (mole fraction) (in ethyl acetate, 288.15 K) was 0.000286 and the solubility (mole fraction) (in ethyl acetate, 293.15 K) was 0.000331. It also gave a solubility (mole fraction) (in ethyl acetate, 298.15 K) of 0.000387, a solubility (mole fraction) (in ethyl acetate, 303.15 K) of 0.000434 and a solubility (mole fraction) (in ethyl acetate, 308.15 K) of 0.000491. It also gave a solubility (mole fraction) (in ethyl acetate, 313.15 K) of 0.000521, a solubility (mole fraction) (in ethyl acetate, 318.15 K) of 0.000555 and a solubility (mole fraction) (in ethyl acetate, 323.15 K) of 0.000594. The solubility (mole fraction) (in ethyl acetate, 328.15 K) was 0.000618, the solubility (mole fraction) (in ethyl acetate, 333.15 K) was 0.000645 and the solubility (mole fraction) (in isobutanol, 288.15 K) was 0.0035. It also gave a solubility (mole fraction) (in isobutanol, 293.15 K) of 0.00381, a solubility (mole fraction) (in isobutanol, 298.15 K) of 0.0041 and a solubility (mole fraction) (in isobutanol, 303.15 K) of 0.0045. It also gave a solubility (mole fraction) (in isobutanol, 308.15 K) of 0.00491, a solubility (mole fraction) (in isobutanol, 313.15 K) of 0.00531 and a solubility (mole fraction) (in isobutanol, 318.15 K) of 0.00575. The solubility (mole fraction) (in isobutanol, 323.15 K) was 0.00622, the solubility (mole fraction) (in isobutanol, 328.15 K) was 0.00672 and the solubility (mole fraction) (in isobutanol, 333.15 K) was 0.00738. The solubility (mole fraction) (in isopropanol, 288.15 K) was 0.00339, the solubility (mole fraction) (in isopropanol, 293.15 K) was 0.00354 and the solubility (mole fraction) (in isopropanol, 298.15 K) was 0.0038. The solubility (mole fraction) (in isopropanol, 303.15 K) was 0.00404, the solubility (mole fraction) (in isopropanol, 308.15 K) was 0.00445 and the solubility (mole fraction) (in isopropanol, 313.15 K) was 0.00491. It also gave a solubility (mole fraction) (in isopropanol, 318.15 K) of 0.00563, a solubility (mole fraction) (in isopropanol, 323.15 K) of 0.00656 and a solubility (mole fraction) (in isopropanol, 328.15 K) of 0.00763. For the same molecule, the solubility (mole fraction) (in isopropanol, 333.15 K) was 0.00891, the solubility (mole fraction) (in methanol, 288.15 K) was 0.00336 and the solubility (mole fraction) (in methanol, 293.15 K) was 0.00347. It also gave a solubility (mole fraction) (in methanol, 298.15 K) of 0.00373, a solubility (mole fraction) (in methanol, 303.15 K) of 0.00411 and a solubility (mole fraction) (in methanol, 308.15 K) of 0.00452. It also gave a solubility (mole fraction) (in methanol, 313.15 K) of 0.00486, a solubility (mole fraction) (in methanol, 318.15 K) of 0.0052 and a solubility (mole fraction) (in methanol, 323.15 K) of 0.00555. It also gave a solubility (mole fraction) (in methanol, 328.15 K) of 0.00607, a solubility (mole fraction) (in methanol, 333.15 K) of 0.00658 and a solubility (mole fraction) (in n-butanol, 288.15 K) of 0.00698. It also gave a solubility (mole fraction) (in n-butanol, 293.15 K) of 0.00709, a solubility (mole fraction) (in n-butanol, 298.15 K) of 0.0073 and a solubility (mole fraction) (in n-butanol, 303.15 K) of 0.00763. It also gave a solubility (mole fraction) (in n-butanol, 308.15 K) of 0.00802, a solubility (mole fraction) (in n-butanol, 313.15 K) of 0.00844 and a solubility (mole fraction) (in n-butanol, 318.15 K) of 0.00887. The solubility (mole fraction) (in n-butanol, 323.15 K) was 0.00932, the solubility (mole fraction) (in n-butanol, 328.15 K) was 0.00996 and the solubility (mole fraction) (in n-butanol, 333.15 K) was 0.0107. The solubility (mole fraction) (in n-propanol, 288.15 K) was 0.00484, the solubility (mole fraction) (in n-propanol, 293.15 K) was 0.0053 and the solubility (mole fraction) (in n-propanol, 298.15 K) was 0.00588. The solubility (mole fraction) (in n-propanol, 303.15 K) was 0.00652, the solubility (mole fraction) (in n-propanol, 308.15 K) was 0.00731 and the solubility (mole fraction) (in n-propanol, 313.15 K) was 0.00832. It also gave a solubility (mole fraction) (in n-propanol, 318.15 K) of 0.00942, a solubility (mole fraction) (in n-propanol, 323.15 K) of 0.0106 and a solubility (mole fraction) (in n-propanol, 328.15 K) of 0.0123. For the same molecule, the solubility (mole fraction) (in n-propanol, 333.15 K) was 0.0142.
